Measurements from patent US20240368135A1 (VERTEX PHARMACEUTICALS INCORPORATED, priority 2021, published 2024).

These compounds were tested against human NaV 1.8 (Homo sapiens, UniProt Q9Y5Y9) (assay: E-VIPR assay detecting and measuring NaV inhibition properties). Details: HEK cells expressing truncated human NaV 1.8; no human serum; read-out: IC50 in the E-VIPR Assay.
Assay type: cell-based
In short: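 Membrane potential was followed by coumarin/oxonol FRET during electrical field stimulation of matrigel-seeded HEK cells carrying truncated human NaV1.8 plus KIR2.1. Dosing used 11 points, 3-fold steps, top 300 nM final, 0.625% DMSO, with or without 25% human serum.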

Chain of human NaV 1.8 (Q9Y5Y9 126-399 limits assumed): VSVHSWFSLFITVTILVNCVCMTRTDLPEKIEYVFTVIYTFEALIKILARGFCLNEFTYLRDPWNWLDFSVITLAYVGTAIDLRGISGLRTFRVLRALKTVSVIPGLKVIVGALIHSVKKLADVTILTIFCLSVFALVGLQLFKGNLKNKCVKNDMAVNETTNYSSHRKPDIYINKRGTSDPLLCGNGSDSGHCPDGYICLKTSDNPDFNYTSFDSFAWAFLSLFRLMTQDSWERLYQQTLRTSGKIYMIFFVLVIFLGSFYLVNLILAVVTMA
Chain of human NaV 1.8 (Q9Y5Y9 660-890 limits assumed): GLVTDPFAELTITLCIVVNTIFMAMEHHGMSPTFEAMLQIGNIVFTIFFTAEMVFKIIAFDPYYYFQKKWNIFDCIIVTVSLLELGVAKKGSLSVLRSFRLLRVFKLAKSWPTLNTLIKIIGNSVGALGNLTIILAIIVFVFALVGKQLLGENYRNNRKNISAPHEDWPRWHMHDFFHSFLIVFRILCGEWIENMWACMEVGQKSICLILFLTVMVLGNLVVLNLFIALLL
Chain of human NaV 1.8 (Q9Y5Y9 1148-1722 limits assumed): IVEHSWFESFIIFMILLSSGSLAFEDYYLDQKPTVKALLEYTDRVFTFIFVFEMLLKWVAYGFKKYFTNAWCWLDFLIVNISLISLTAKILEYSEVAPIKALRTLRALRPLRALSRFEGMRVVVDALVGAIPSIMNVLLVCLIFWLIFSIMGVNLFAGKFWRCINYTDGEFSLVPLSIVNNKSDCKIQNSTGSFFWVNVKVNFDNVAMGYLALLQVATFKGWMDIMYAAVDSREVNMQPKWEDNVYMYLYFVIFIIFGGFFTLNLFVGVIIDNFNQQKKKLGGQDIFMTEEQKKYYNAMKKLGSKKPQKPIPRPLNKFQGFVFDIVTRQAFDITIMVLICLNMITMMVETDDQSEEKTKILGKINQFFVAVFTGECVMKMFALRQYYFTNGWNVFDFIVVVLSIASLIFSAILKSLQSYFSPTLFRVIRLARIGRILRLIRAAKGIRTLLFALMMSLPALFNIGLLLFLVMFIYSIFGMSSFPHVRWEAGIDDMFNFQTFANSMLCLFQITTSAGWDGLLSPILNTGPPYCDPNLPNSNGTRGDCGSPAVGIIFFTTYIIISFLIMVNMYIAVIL

First: C=C(CO)COc1c([C@H]2[C@H](C(=O)Nc3cn(C(F)F)nc3C)O[C@@](C)(C(F)(F)F)[C@H]2C)ccc(F)c1F [Compound 601, (2R,3S,4S,5R)-3-[3,4-difluoro-2-[2-(hydroxymethyl)allyloxy]phenyl]-N-[1-(difluoromethyl)-3-methyl-pyrazol-4-yl]-4,5-dimethyl-5-(trifluoromethyl)tetrahydrofuran-2-carboxamide]
Second: Cc1nn(C(F)F)cc1NC(=O)[C@@H]1O[C@@](C)(C(F)(F)F)[C@@H](C)[C@H]1c1ccc(F)c(F)c1OCC(=O)O [Compound 603, 2-(6-((2R,3S,4S,5R)-2-((1-(difluoromethyl)-3-methyl-1H-pyrazol-4-yl)carbamoyl)-4,5-dimethyl-5-(trifluoromethyl)tetrahydrofuran-3-yl)-2,3-difluorophenoxy)acetic acid]
The IC50 of the first is lower: less than 10 nM for the first, no less than 1000 nM for the second. The first is the more potent here.

Compared with `COC(=O)COc1c([C@H]2[C@H](C(=O)Nc3cn(C(F)F)nc3C)O[C@@](C)(C(F)(F)F)[C@H]2C)ccc(F)c1F` [Compound 602, methyl 2-[6-[(2R,3S,4S,5R)-2-[[1-(difluoromethyl)-3-methyl-pyrazol-4-yl]carbamoyl]-4,5-dimethyl-5-(trifluoromethyl)tetrahydrofuran-3-yl]-2,3-difluoro-phenoxy]acetate], `CNC(=O)COc1c([C@H]2[C@H](C(=O)Nc3cn(C(F)F)nc3C)O[C@@](C)(C(F)(F)F)[C@H]2C)ccc(F)c1F` [Compound 607, (2R,3S,4S,5R)-3-(3,4-difluoro-2-(2-(methylamino)-2-oxoethoxy)phenyl)-N-(1-(difluoromethyl)-3-methyl-1H-pyrazol-4-yl)-4,5-dimethyl-5-(trifluoromethyl)tetrahydrofuran-2-carboxamide] is higher in IC50: less than 10 nM for the first, 10 to 100 nM for the second. The first is the more potent here.

First: Cc1nn(C(F)F)cc1NC(=O)[C@@H]1O[C@@](C)(C(F)(F)F)[C@@H](C)[C@H]1c1ccc(F)c(F)c1OCC(=O)N(C)O [Compound 604, (2R,3S,4S,5R)-3-(3,4-difluoro-2-(2-(hydroxy(methyl)amino)-2-oxoethoxy)phenyl)-N-(1-(difluoromethyl)-3-methyl-1H-pyrazol-4-yl)-4,5-dimethyl-5-(trifluoromethyl)tetrahydrofuran-2-carboxamide]
Second: Cc1nn(C(F)F)cc1NC(=O)[C@@H]1O[C@@](C)(C(F)(F)F)[C@@H](C)[C@H]1c1ccc(F)c(F)c1OCC(N)=O [Compound 605, (2R,3S,4S,5R)-3-(2-(2-amino-2-oxoethoxy)-3,4-difluorophenyl)-N-(1-(difluoromethyl)-3-methyl-1H-pyrazol-4-yl)-4,5-dimethyl-5-(trifluoromethyl)tetrahydrofuran-2-carboxamide]
The IC50 of the first is higher: 100 to 1000 nM for the first, 10 to 100 nM for the second. The second is the more potent here.

First: C[C@H](CO)COc1c([C@H]2[C@H](C(=O)Nc3ccc(C(N)=O)nc3)O[C@@](C)(C(F)(F)F)[C@H]2C)ccc(F)c1F [Compound 614, 5-((2R,3S,4S,5R)-3-(3,4-difluoro-2-((R)-3-hydroxy-2-methylpropoxy)phenyl)-4,5-dimethyl-5-(trifluoromethyl)tetrahydrofuran-2-carboxamido)picolinamide]
Second: C[C@@H](CO)COc1c([C@H]2[C@H](C(=O)Nc3ccc(C(N)=O)nc3)O[C@@](C)(C(F)(F)F)[C@H]2C)ccc(F)c1F [Compound 616, 5-((2R,3S,4S,5R)-3-(3,4-difluoro-2-((S)-3-hydroxy-2-methylpropoxy)phenyl)-4,5-dimethyl-5-(trifluoromethyl)tetrahydrofuran-2-carboxamido)picolinamide]
The IC50 of the first is lower: 10 to 100 nM for the first, 100 to 1000 nM for the second.

`C[C@H]1[C@@H](c2ccc(F)c(F)c2OCCO)[C@H](C(=O)Nc2ccc(C(N)=O)nc2)O[C@@]1(C)C(F)(F)F` [Compound 615, 5-((2R,3S,4S,5R)-3-(3,4-difluoro-2-(2-hydroxyethoxy)phenyl)-4,5-dimethyl-5-(trifluoromethyl)tetrahydrofuran-2-carboxamido)picolinamide] was tested, and the IC50 was 10 to 100 nM.
